We go through 14 compounds from patent US11596639B2, “Substituted indole Mcl-1 inhibitors” (Vanderbilt University, priority 2016, dated 2023).

Like-named read-outs stand apart in the source and are kept apart here.

Assay [1] concerns H929 human cancer cell lines. Kind of assay: Cellular viability / proliferation (Cell TiterGlo, 72 h). The format is cell-based. The procedure, abridged:
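Top dose 50 μM, serially diluted 2-fold, applied one day after seeding (1,000 cells/well, 10% FBS), DMSO below 1%.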

The target in assay [2] is Mcl-1 (Homo sapiens (Human), UniProt Q07820). Kind of assay: Fluorescence polarization anisotropy (FPA) competition assay, FITC-Bak or FITC-Bim BH3 peptide. Format: binding. Conditions: read-out: Ki for Inhibition of Mcl-1 by FPA assay.
Setting [3] is: Homo sapiens, NCI-H929, 72 h, read-out: GI50 on cellular proliferation of H929 human cancer cell lines, H929 cells, 72 h, Cell TiterGlo, 10% FBS.

Chain of Mcl-1 (Q07820 172-327): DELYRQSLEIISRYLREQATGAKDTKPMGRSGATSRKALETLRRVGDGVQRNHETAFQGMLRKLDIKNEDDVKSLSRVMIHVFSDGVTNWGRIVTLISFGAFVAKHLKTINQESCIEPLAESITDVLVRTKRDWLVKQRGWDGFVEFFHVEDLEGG

Take `Cc1cc(OCCCc2c3n(c4c(-c5c(C)ncnc5C)c(Cl)ccc24)[C@H](C)CN(c2cccc4c(C(=O)O)ccnc24)C3=O)cc(C)c1Cl` [Example 225, 8-[(4R)-7-chloro-10-[3-(4-chloro-3,5-dimethyl-phenoxy)propyl]-6-(4,6-dimethylpyrimidin-5-yl)-4-methyl-1-oxo-3,4-dihydropyrazino[1,2-a]indol-2-yl]quinoline-4-carboxylic acid]: the GI50 in assay [1] (setting [3]) came to 3300 nM. For the same compound, the Ki in assay [2] was less than 1 nM.
With `Cc1cc(OCCCc2c3n(c4c(-c5c(C)nn(C)c5C)c(Cl)ccc24)[C@H](C)CN(c2cccc4cc5n(c24)CCN(C)C5=O)C3=O)cc(C)c1Cl` [Example 226, (4R)-7-chloro-10-[3-(4-chloro-3,5-dimethyl-phenoxy)propyl]-4-methyl-2-(2-methyl-1-oxo-3,4-dihydropyrazino[1,2-a]indol-6-yl)-6-(1,3,5-trimethylpyrazol-4-yl)-3,4-dihydropyrazino[1,2-a]indol-1-one], the GI50 in assay [1] (setting [3]) came out at 2600 nM. Besides, the Ki in assay [2] came out at 4.9 nM.
The matching figures for `Cc1cc(OCCCc2c3n(c4c(-c5c(C)ncnc5C)c(Cl)ccc24)[C@H](C)CN(c2cccc4cc(C(=O)O)cnc24)C3=O)cc(C)c1Cl` [Example 227, 8-[(4R)-7-chloro-10-[3-(4-chloro-3,5-dimethyl-phenoxy)propyl]-6-(4,6-dimethylpyrimidin-5-yl)-4-methyl-1-oxo-3,4-dihydropyrazino[1,2-a]indol-2-yl]quinoline-3-carboxylic acid]: 1300 nM and less than 1 nM.
On to `Cc1cc(OCCCc2c3n(c4c(-c5c(C)nc(N6CCN(C)CC6)nc5C)c(Cl)ccc24)CCCN(c2cn(C)c4ccc(C(=O)O)cc24)C3=O)cc(C)c1Cl` [Example 228, 3-(8-Chloro-11-(3-(4-chloro-3,5-dimethylphenoxy)propyl)-7-(4,6-dimethyl-2-(4-methylpiperazin-1-yl)pyrimidin-5-yl)-1-oxo-4,5-dihydro-1H-[1,4]diazepino[1,2-a]indol-2(3H)-yl)-1-methyl-1H-indole-5-carboxylic acid], for which the GI50 in assay [1] (setting [3]) is 780 nM. Moreover, the Ki in assay [2] turned out to be 1.6 nM.
`Cc1cc(OCCCc2c3n(c4c(-c5c(C)nn(C)c5C)c(Cl)ccc24)[C@H](C)CN(c2cccc4cc5n(c24)CCN(CCC(C)C)C5=O)C3=O)cc(C)c1Cl` [Example 229, (4R)-7-chloro-10-[3-(4-chloro-3,5-dimethyl-phenoxy)propyl]-2-(2-isopentyl-1-oxo-3,4-dihydropyrazino[1,2-a]indol-6-yl)-4-methyl-6-(1,3,5-trimethylpyrazol-4-yl)-3,4-dihydropyrazino[1,2-a]indol-1-one]: the GI50 in assay [1] (setting [3]) is 9300 nM. In assay [2], the Ki was found to be 3.7 nM.
The matching figures for `Cc1cc(OCCCc2c3n(c4c(-c5c(C)nn(C)c5C)c(Cl)ccc24)[C@H](C)CN(c2cccc4c(Cl)cc(C(=O)O)nc24)C3=O)cc(C)c1Cl` [Example 230, (R)-4-Chloro-8-(7-chloro-10-(3-(4-chloro-3,5-dimethylphenoxy)propyl)-4-methyl-1-oxo-6-(1,3,5-trimethyl-1H-pyrazol-4-yl)-3,4-dihydropyrazino[1,2-a]indol-2(1H)-yl)quinoline-2-carboxylic acid]: 890 nM and less than 1 nM.
As for `Cc1cc(OCCCc2c3n(c4c(-c5c(C)nn(C)c5C)c(Cl)ccc24)[C@H](C)CN(c2cn(COCC[Si](C)(C)C)c4ccc(C(=O)O)cc24)C3=O)cc(C)c1Cl` [Example 231, (R)-3-(7-Chloro-10-(3-(4-chloro-3,5-dimethylphenoxy)propyl)-4-methyl-1-oxo-6-(1,3,5-trimethyl-1H-pyrazol-4-yl)-3,4-dihydropyrazino[1,2-a]indol-2(1H)-yl)-1-((2-(trimethylsilyl)ethoxy)methyl)-1H-indole-5-carboxylic acid], the GI50 in assay [1] (setting [3]) was determined as 2700 nM. For the same compound, the Ki in assay [2] turned out to be 1.2 nM.
With `Cc1cc(OCCCc2c3n(c4c(-c5c(C)nn(C)c5C)c(Cl)ccc24)[C@H](C)CN(c2cc(Cl)cc4cc(C(=O)O)oc24)C3=O)cc(C)c1Cl` [Example 232, (R)-5Chloro-7-(7-chloro-10-(3-(4-chloro-3,5-dimethylphenoxy)propyl)-4-methyl-1-oxo-6-(1,3,5-trimethyl-1H-pyrazol-4-yl)-3,4-dihydropyrazino[1,2-a]indol-2(1H)-yl)benzofuran-2-carboxylic acid], in assay [1] (setting [3]), the GI50 stood at 4000 nM. In addition, in assay [2], the Ki is less than 1 nM.
The matching figures for `Cc1cc(OCCCc2c3n(c4c(-c5c(C)nn(C)c5C)c(Cl)ccc24)[C@H](C)CN(c2cccc4cc(C(=O)O)[nH]c24)C3=O)cc(C)c1Cl` [Example 233, 7-[(4R)-7-chloro-10-[3-(4-chloro-3,5-dimethyl-phenoxy)propyl]-4-methyl-1-oxo-6-(1,3,5-trimethylpyrazol-4-yl)-3,4-dihydropyrazino[1,2-a]indol-2-yl]-1H-indole-2-carboxylic acid]: 1400 nM and less than 1 nM.
As to `Cc1cc(OCCCc2c3n(c4c(-c5c(C)nn(C)c5C)c(Cl)ccc24)[C@H](C)CN(c2cccc4ccn(C)c24)C3=O)cc(C)c1Cl` [Example 234, (R)-7-Chloro-10-(3-(4-chloro-3,5-dimethylphenoxy)propyl)-4-methyl-2-(1-methyl-1H-indol-7-yl)-6-(1,3,5-trimethyl-1H-pyrazol-4-yl)-3,4-dihydropyrazino[1,2-a]indol-1(2H)-one], the GI50 in assay [1] (setting [3]) is 1600 nM. The Ki in assay [2] was less than 1 nM.
Turning to `Cc1cc(OCCCc2c3n(c4c(-c5c(C)nn(C)c5C)c(Cl)ccc24)[C@H](C)CN(c2cn(C)c4ccc(-c5nnn[nH]5)cc24)C3=O)cc(C)c1Cl` [Example 235, (R)-7-Chloro-10-(3-(4-chloro-3,5-dimethylphenoxy)propyl)-4-methyl-2-(1-methyl-5-(1H-tetrazol-5-yl)-1H-indol-3-yl)-&(1,3,5-trimethyl-1H-pyrazol-4-yl)-3,4-dihydropyrazino[1,2-a]indol-1(2H)-one], the GI50 in assay [1] (H929 cells, 72 h, Cell TiterGlo, 10% FBS, read-out: GI50 on cellular proliferation of H929 human cancer cell lines) turned out to be 240 nM. For the same compound, the Ki in assay [2] is less than 1 nM.
As for `Cc1cc(OCCCc2c3n(c4c(-c5c(C)nn(C)c5C)c(Cl)ccc24)[C@H](C)CN(c2cn(C)c4cc(-c5nn[nH]n5)ccc24)C3=O)cc(C)c1Cl` [Example 236, (R)-7-chloro-10-(3-(4-chloro-3,5-dimethylphenoxy)propyl)-4-methyl-2-(1-methyl-6-(2H-tetrazol-5-yl)-1H-indol-3-yl)-6-(1,3,5-trimethyl-1H-pyrazol-4-yl)-3,4-dihydropyrazino[1,2-a]indol-1(2H)-one], the GI50 in assay [1] (setting [3]) was 1100 nM. Besides, the Ki in assay [2] is less than 1 nM.
With `Cc1cc(OCCCc2c3n(c4c(-c5c(C)ncnc5C)c(Cl)ccc24)[C@H](C)CN(c2cccc4cc(C(=O)O)n(C)c24)C3=O)cc(C)c1Cl` [Example 238, 7-[(4R)-7-chloro-10-[3-(4-chloro-3,5-dimethyl-phenoxy)propyl]-6-(4,6-dimethylpyrimidin-5-yl)-4-methyl-1-oxo-3,4-dihydropyrazino[1,2-a]indol-2-yl]-1-methyl-indole-2-carboxylic acid], in assay [1] (setting [3]), the GI50 is 340 nM. In assay [2], the Ki is less than 1 nM.
Consider `COc1cc(C(=O)O)nc2c(N3C[C@@H](C)n4c(c(CCCOc5cc(C)c(Cl)c(C)c5)c5ccc(Cl)c(-c6c(C)nn(C)c6C)c54)C3=O)cccc12` [Example 239, (R)-8-(7-Chloro-10-(3-(4-chloro-3,5-dimethylphenoxy)propyl)-4-methyl-1-oxo-6-(1,3,5-trimethyl-1H-pyrazol-4-yl)-3,4-dihydropyrazino[1,2-a]indol-2(1H)-yl)-4-methoxyquinoline-2-carboxylic acid], for which the GI50 in assay [1] (setting [3]) was 1800 nM. Moreover, the Ki in assay [2] was less than 1 nM.
